From article PMC11901902, “Design, Synthesis, and Cytotoxicity Evaluation of Novel Indolin-2-One Based Molecules on Hepatocellular Carcinoma HepG2 Cells as Protein Kinase Inhibitors” (Molecules, 2025)
Where two headings read alike, the source gives them in different places.

Columns and labels:
HepG-2 cells = assay: MTT cytotoxicity assay on HepG-2 cells; assay type: cell-based, human; details: Homo sapiens, HepG2; for IC50: MTT, 24 h treatment, mean of three experiments ± SEM; for viability at 1.25 µM: HepG-2, 1.25 µM; for viability at 1.25 µM / viability at 2.5 µM / viability at 5 µM / viability at 10 µM / viability at 20 µM / viability at 40 µM / viability at 80 µM / viability at 160 µM: Table S1; for viability at 2.5 µM: HepG-2, 2.5 µM; for viability at 5 µM: HepG-2, 5 µM; for viability at 10 µM: HepG-2, 10 µM; for viability at 20 µM: HepG-2, 20 µM; for viability at 40 µM: HepG-2, 40 µM; for viability at 80 µM: HepG-2, 80 µM; for viability at 160 µM: HepG-2, 160 µM
Method: (§1) Cytotoxic activity of the synthesized compounds was evaluated against HepG-2 and MCF-7 cancer cell lines using the MTT assay. The tested cell lines were obtained from the American Type Culture Collection (ATCC, […], USA) through the Tissue Culture Unit, The Egyptian Organization for Biological Products and Vaccines (Vacsera, Giza, Egypt). Indirubin, chemicals, and solvents were purchased from Sigma-Aldrich (St. Louis, MO, USA). The cells were grown on RPMI-1640 medium supplemented with 10% inactivated fetal calf serum and 50 µg/mL gentamycin. The cells were maintained at 37 °C in a humidified atmosphere with 5% CO2 and were sub-cultured two to three times per week. For antitumor assays, the tumor cell lines were suspended in the medium at concentration 5 × 10^4 cell/well in Corning® 96-well tissue culture plates (Corning, Corning, NY, USA), then incubated for 24 h. The tested molecules were then added to 96-well plates (six replicates) to achieve six concentrations for each compound. Six vehicle controls with media or 0.5% DMSO were run for each 96-well plate as a control. After incubating for 24 h, the numbers of viable cells were determined by the MTT test. Briefly, the media was removed from the 96 well plate and replaced with 100 µL of fresh culture RPMI 1640 medium without phenol red then 10 µL of the 12 mM MTT stock solution (5 mg of MTT in 1 mL of PBS) to each well including the untreated controls. The 96-well plates were then incubated at 37 °C and 5% CO2 for 4 h. An 85 µL aliquot of the media was removed from the wells, and 50 µL of DMSO was added to each well, mixed thoroughly with the pipette, and incubated at 37 °C for 10 min. Then, the optical density was measured at 590 nm with the microplate reader (SunRise, TECAN, Inc., Morrisville, NC, USA) to determine the number of viable cells, and the percentage of viability was calculated as […], where ODt is the mean optical density of wells treated with the tested sample and ODc is the mean optical density of untreated cells. The relation between surviving cells and drug concentration was plotted to obtain the survival curve of each tumor cell line after treatment with the specified compound. […] Each concentration was repeated four times.

MCF-7 cells = assay: MTT cytotoxicity assay on MCF-7 cells; assay type: cell-based; details: Homo sapiens, MCF7; for viability at 1.25 µM: MCF-7, 1.25 µM; for viability at 2.5 µM: MCF-7, 2.5 µM; for viability at 5 µM: MCF-7, 5 µM; for viability at 10 µM: MCF-7, 10 µM; for viability at 20 µM: MCF-7, 20 µM; for viability at 40 µM: MCF-7, 40 µM; for viability at 80 µM: MCF-7, 80 µM; for viability at 160 µM: MCF-7, 160 µM
Method: as §1

VEGFR-2 = target: T1, VEGFR-2 (Homo sapiens, UniProt P35968); assay: Kinase-Glo Plus luminescence kinase inhibition assay, VEGFR-2; assay type: biochemical; details: 10 µM ATP, 30 °C, 40 min; mean ± SEM
T1 construct: purchased BPS Bioscience 40301
T1 sequence (P35968 20-1356): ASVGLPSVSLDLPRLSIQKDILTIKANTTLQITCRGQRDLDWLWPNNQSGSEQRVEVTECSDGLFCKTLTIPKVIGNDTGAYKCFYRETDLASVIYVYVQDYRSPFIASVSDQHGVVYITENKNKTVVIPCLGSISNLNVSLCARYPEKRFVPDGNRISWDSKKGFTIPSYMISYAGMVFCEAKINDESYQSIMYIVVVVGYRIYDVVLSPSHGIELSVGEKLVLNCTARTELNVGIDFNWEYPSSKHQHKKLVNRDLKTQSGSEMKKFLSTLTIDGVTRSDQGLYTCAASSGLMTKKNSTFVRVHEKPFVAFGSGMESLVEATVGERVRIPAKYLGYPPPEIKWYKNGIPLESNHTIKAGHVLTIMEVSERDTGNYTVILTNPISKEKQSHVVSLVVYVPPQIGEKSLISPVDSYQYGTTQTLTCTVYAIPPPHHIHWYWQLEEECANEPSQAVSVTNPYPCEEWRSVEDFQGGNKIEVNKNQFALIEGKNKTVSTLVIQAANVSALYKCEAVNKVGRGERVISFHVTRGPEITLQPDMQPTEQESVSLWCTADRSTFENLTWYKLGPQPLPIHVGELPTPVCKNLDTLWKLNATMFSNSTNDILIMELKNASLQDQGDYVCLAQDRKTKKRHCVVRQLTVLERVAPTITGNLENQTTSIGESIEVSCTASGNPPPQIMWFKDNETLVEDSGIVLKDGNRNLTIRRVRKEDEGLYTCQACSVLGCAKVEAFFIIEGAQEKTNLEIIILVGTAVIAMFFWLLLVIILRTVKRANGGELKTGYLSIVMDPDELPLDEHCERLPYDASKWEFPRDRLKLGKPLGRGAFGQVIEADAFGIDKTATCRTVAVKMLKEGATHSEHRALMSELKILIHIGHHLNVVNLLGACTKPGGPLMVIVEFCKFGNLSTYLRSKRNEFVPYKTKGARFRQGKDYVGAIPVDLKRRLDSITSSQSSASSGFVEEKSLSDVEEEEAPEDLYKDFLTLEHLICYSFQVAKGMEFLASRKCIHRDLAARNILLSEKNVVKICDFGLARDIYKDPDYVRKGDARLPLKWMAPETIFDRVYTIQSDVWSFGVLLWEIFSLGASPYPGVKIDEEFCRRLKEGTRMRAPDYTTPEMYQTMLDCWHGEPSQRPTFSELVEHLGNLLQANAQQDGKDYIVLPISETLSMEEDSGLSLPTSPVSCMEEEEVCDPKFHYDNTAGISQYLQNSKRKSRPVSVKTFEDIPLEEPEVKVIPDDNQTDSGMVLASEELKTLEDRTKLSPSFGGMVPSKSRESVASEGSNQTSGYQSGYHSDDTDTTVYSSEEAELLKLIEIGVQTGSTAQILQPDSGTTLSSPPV
Method: (§2) The enzyme inhibition assay for the tested molecules was performed at BPS Bioscience Corporation, San Diego, CA, USA. The following materials served as the enzyme sources, Poly (Glu, Tyr) sodium salt (4:1, Glu:Tyr) (Sigma#P7244) served as the standardized substrate, and the Kinase-Glo Plus Luminescence kinase assay kit (Promega # V3772) was used. […] Glo Plus luminescence kinase assay kits. The assays were performed using Kinase-Glo Plus luminescence (Promega Corporation, Madison, WI, USA).
(§3) The tested molecules 9, 20, and indurbin were diluted to 100 µL in DMSO (10%), and 5 µL of the solution was added to a 50-µL enzyme reaction until the final concentration of DMSO was 1% in all of reactions. The enzymatic reactions were conducted at 30 °C for 40 min. The reaction mixture contained enzyme substrate and respective kinases. After the enzymatic reaction, 50 µL of enzyme-Glo Plus luminescence […] assay solution (Promega) was added to each reaction, and the plate was incubated for 5 min at room temperature. The luminescence signal was measured using a BioTek Synergy 2 microplate reader. The luminescence data were analyzed using the computer software GraphPad Prism. The difference between luminescence intensities in the absence of enzyme (Lut) and in the presence of enzyme (Luc) was defined as 100% activity (Lut − Luc). […] The IC50 value was determined using GraphPad Prism software. […]
(§4) Glo Plus luminescence kinase assay kits were used in these assays. […] The assay measures kinase activity by quantitating the amount of ATP remaining in the solution following kinase reaction. […] After the enzymatic reaction, 50 µL of Kinase-Glo Plus Luminescence kinase assay solution (Promega) was added to each reaction, and the plate was incubated for 5 min at room temperature. The luminescence signal was measured using a BioTek Synergy 2 microplate reader. […] The luminescence data were analyzed using the Graphpad Prism software.

EGFR = target: T2, EGFR (Homo sapiens, UniProt P00533); assay: Kinase-Glo Plus luminescence kinase inhibition assay, EGFR; assay type: biochemical; details: 10 µM ATP, 30 °C, 40 min; mean ± SEM
T2 construct: purchased BPS Bioscience 40721
T2 sequence (P00533 25-1210): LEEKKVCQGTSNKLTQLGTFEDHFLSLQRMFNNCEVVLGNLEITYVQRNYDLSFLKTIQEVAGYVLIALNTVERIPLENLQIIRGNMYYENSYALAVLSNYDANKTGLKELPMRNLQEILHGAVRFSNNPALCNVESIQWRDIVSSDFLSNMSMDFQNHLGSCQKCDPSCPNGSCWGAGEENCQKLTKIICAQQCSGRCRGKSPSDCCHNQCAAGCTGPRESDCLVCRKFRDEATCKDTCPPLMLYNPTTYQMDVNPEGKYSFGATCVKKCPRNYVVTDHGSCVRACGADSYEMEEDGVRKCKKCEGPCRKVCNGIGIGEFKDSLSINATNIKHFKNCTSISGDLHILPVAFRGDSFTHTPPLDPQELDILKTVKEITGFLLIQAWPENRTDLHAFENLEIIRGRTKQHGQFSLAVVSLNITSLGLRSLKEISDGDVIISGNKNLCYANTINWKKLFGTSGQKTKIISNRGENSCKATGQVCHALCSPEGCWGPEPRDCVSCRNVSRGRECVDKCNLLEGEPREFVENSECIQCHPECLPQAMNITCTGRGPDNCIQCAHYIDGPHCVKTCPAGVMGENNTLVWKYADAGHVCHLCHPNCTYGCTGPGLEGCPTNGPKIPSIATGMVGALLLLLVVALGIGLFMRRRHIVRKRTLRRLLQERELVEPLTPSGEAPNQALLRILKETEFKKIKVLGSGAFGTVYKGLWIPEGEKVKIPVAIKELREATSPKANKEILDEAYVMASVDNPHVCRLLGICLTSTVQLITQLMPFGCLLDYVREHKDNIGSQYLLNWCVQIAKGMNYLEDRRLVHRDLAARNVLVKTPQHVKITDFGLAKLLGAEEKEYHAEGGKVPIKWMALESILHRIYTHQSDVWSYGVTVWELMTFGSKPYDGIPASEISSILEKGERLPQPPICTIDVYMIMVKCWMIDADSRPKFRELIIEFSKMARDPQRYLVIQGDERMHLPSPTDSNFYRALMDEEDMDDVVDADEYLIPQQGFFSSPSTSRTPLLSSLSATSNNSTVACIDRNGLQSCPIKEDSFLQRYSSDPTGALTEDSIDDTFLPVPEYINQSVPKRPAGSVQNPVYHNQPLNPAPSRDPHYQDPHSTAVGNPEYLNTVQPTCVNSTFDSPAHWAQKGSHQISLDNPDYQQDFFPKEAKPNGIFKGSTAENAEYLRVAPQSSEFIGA
Method: as §2, §3, §4

CDK-2 = target: T3, CDK-2 (Homo sapiens, UniProt P24941); assay: Kinase-Glo Plus luminescence kinase inhibition assay, CDK-2; assay type: biochemical; details: 10 µM ATP, 30 °C, 40 min; mean ± SEM
T3 construct: purchased BPS Bioscience 41101
Method: as §2
The tested molecules 9, 20, and indurbin were diluted to 100 µL in DMSO (10%), and 5 µL of the solution was added to a 50-µL enzyme reaction until the final concentration of DMSO was 1% in all of reactions. The enzymatic reactions were conducted at 30 °C for 40 min. The reaction mixture contained enzyme substrate and respective kinases. After the enzymatic reaction, 50 µL of enzyme-Glo Plus luminescence […] assay solution (Promega) was added to each reaction, and the plate was incubated for 5 min at room temperature. The luminescence signal was measured using a BioTek Synergy 2 microplate reader. The luminescence data were analyzed using the computer software GraphPad Prism. The difference between luminescence intensities in the absence of enzyme (Lut) and in the presence of enzyme (Luc) was defined as 100% activity (Lut − Luc). The values of enzyme activity percentages versus five concentrations of the small molecule were then plotted using a non-linear regression analysis of the sigmoidal dose–response curve. The IC50 value was determined using GraphPad Prism software. All experiments were repeated three times (Table S3).
Glo Plus luminescence kinase assay kits were used in these assays. The assay was done at Bioscience Laboratory BPS, California, USA. The assay measures kinase activity by quantitating the amount of ATP remaining in the solution following kinase reaction. The luminescent signal from the assay was correlated with the amount of ATP present and inversely correlated with kinase activity. […] All of the enzymatic reactions were conducted at 30 °C for 40 min. The reaction mixture contained 40 mM Tris, pH 7.4, 10 mM MgCl2, 0.1 mg/mL BSA, 1 mM DTT, 10 µM ATP, Kinase substrate, and VEGFR-2, EFGR, CDK-2 and CDK-4 enzymes. After the enzymatic reaction, 50 µL of Kinase-Glo Plus Luminescence kinase assay solution (Promega) was added to each reaction, and the plate was incubated for 5 min at room temperature. The luminescence signal was measured using a BioTek Synergy 2 microplate reader. Kinase activity assays were performed in triplicate for each concentration. The luminescence data were analyzed using the Graphpad Prism software.

CDK-4 = target: T4, CDK-4 (Homo sapiens, UniProt P11802); assay: Kinase-Glo Plus luminescence kinase inhibition assay, CDK-4; assay type: biochemical; details: 10 µM ATP, 30 °C, 40 min; mean ± SEM
T4 construct: purchased BPS Bioscience 79674
T4 sequence (P11802 whole entry): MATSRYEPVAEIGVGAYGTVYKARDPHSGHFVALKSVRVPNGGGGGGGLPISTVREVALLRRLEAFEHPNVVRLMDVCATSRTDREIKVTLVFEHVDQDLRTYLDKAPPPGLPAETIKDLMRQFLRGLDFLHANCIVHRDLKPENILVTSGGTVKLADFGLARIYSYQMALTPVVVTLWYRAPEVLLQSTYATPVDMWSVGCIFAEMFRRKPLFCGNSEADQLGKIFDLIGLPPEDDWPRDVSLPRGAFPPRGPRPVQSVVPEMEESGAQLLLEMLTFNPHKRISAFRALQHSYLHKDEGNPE
T4 sequence (P30281 whole entry partner): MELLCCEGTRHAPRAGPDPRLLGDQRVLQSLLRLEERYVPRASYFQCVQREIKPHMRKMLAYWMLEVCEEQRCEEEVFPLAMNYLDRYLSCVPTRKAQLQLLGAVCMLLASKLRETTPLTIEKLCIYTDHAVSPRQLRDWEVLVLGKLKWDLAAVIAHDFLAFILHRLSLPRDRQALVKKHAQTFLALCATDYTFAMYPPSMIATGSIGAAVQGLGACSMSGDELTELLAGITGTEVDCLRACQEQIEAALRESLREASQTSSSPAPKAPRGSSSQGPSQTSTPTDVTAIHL
Method: as §2, §3, §4

HepG2 cells = test system: HepG2 cells; parameters: method as in PMID 34208562; details: relative to sunitinib; cited from earlier work
[1] = MTT, 24 h treatment, mean of three experiments ± SEM, read-out: IC50 (µM) MCF-7

| Compound | IC50 (HepG-2 cells) | IC50 (MCF-7 cells; [1]) | viability at 1.25 µM (HepG-2 cells) | viability at 2.5 µM (HepG-2 cells) | viability at 5 µM (HepG-2 cells) | viability at 10 µM (HepG-2 cells) | viability at 20 µM (HepG-2 cells) | viability at 40 µM (HepG-2 cells) | viability at 80 µM (HepG-2 cells) | viability at 160 µM (HepG-2 cells) | viability at 1.25 µM (MCF-7 cells; Table S2) | viability at 2.5 µM (MCF-7 cells; Table S2) | viability at 5 µM (MCF-7 cells; Table S2) | viability at 10 µM (MCF-7 cells; Table S2) | viability at 20 µM (MCF-7 cells; Table S2) | viability at 40 µM (MCF-7 cells; Table S2) | viability at 80 µM (MCF-7 cells; Table S2) | viability at 160 µM (MCF-7 cells; Table S2) | also measured |
| --- | --- | --- | --- | --- | --- | --- | --- | --- | --- | --- | --- | --- | --- | --- | --- | --- | --- | --- | --- |
| O=C1Nc2ccccc2/C1=C1/Nc2ccccc2C1=O [Ind, Indirubin, reference compound] | 6.92 ± 0.65 µM | 6.12 ± 0.35 µM | – | – | – | – | – | – | – | – | – | – | – | – | – | – | – | – | IC50 (VEGFR-2): 126 ± 20 nM; IC50 (EGFR): 175 ± 18.3 nM; IC50 (CDK-2): 45.6 ± 2.24 nM; IC50 (CDK-4): 23.6 ± 2.15 nM |
| Cc1cc(C)c(/C=C2\C(=O)Nc3ccccc32)[nH]1 [Semaxanib] | – | – | – | – | – | – | – | – | – | – | – | – | – | – | – | – | – | – | fold more cytotoxic activity than sunitinib (HepG2 cells): 3 fold |
| O=C1Nc2ccc([N+](=O)[O-])cc2C1=Nc1ccc2nc[nH]c(=O)c2c1 [Compound 11, 6-(5-Nitro-2-oxo-1,2-dihydro-indol-3-ylideneamino)-3H-quinazolin-4-one] | 20.9 ± 1.54 µM | 72.4 ± 6.51 µM | 99.2 ± 6.9% | 91.3 ± 7.9% | 89.4 ± 6.4% | 79.5 ± 5.5% | 67.1 ± 3.8% | 54.6 ± 1.9% | 44.1 ± 1.3% | 37.6 ± 1.1% | 116 ± 6.4% | 97.5 ± 7% | 90.1 ± 6.4% | 86 ± 5.5% | 63.9 ± 3.8% | 39.1 ± 2.9% | 25.6 ± 1.3% | 11.2 ± 0.4% | – |
| Cc1ccc2c(c1)C(=Nc1ccc(-c3nc4ccccc4c(=O)[nH]3)cc1)C(=O)N2 [Compound 23, 2-[4-(5-Methyl-2-oxo-1,2-dihydro-indol-3-ylideneamino)-phenyl]-3H-quinazolin-4-one] | 38.4 ± 2.71 µM | 15.3 ± 0.23 µM | 81.5 ± 7.5% | 75.3 ± 6.8% | 64.8 ± 6% | 50.2 ± 4.4% | 39.1 ± 3.6% | 28.7 ± 2.6% | 9.5 ± 0.6% | 4.5 ± 0.3% | 101 ± 7.9% | 91.5 ± 6.5% | 78.8 ± 6.4% | 65.8 ± 5.6% | 40.9 ± 4.6% | 26.9 ± 3% | 12 ± 1.3% | 12 ± 1.6% | – |
| O=C1Nc2ccc(F)cc2/C1=N/c1ccc2nc[nH]c(=O)c2c1 [Compound 8, 6-(5-Flouro-2-oxo-1,2-dihydro-indol-3-ylideneamino)-3H-quinazolin-4-one] | 7.54 ± 0.53 µM | 52.8 ± 3.21 µM | 88 ± 7.6% | 71.2 ± 6.1% | 62.3 ± 4.3% | 48.2 ± 1.8% | 33.6 ± 0.13% | 17.5% | 15.1 ± 1.4% | 9.3 ± 1.1% | 104 ± 4.9% | 94.2 ± 4% | 87.9 ± 3.9% | 75.7 ± 3.2% | 57.1 ± 2.4% | 43.9 ± 2% | 29.7 ± 1.4% | 11.5 ± 0.7% | – |
| Cc1ccc2c(c1)C(=Nc1ccc3nc[nH]c(=O)c3c1)C(=O)N2 [Compound 12, 6-(5-Methyl-2-oxo-1,2-dihydro-indol-3-ylideneamino)-3H-quinazolin-4-one] | 31.9 ± 2.12 µM | 46.2 ± 2.47 µM | 96.4 ± 6.9% | 84.9 ± 6.1% | 81.8 ± 5.4% | 69.1 ± 4.1% | 58.9 ± 2.2% | 49.7 ± 1.7% | 36.3 ± 0.5% | 33.9 ± 1.2% | 104 ± 5.4% | 91.4 ± 4.1% | 80 ± 4.2% | 69.2 ± 2.7% | 58.5 ± 1.5% | 30.1 ± 1.2% | 21.5 ± 1.5% | 9.15 ± 1.2% | – |
| O=C1Nc2ccccc2C1=Nc1ccc(-c2nc3ccccc3c(=O)[nH]2)cc1 [Compound 18, 2-[4-(2-Oxo-1,2-dihydro-indol-3-ylideneamino)-phenyl]-3H-quinazolin-4-one] | 82.4 ± 7.17 µM | > 100 µM | 78 ± 7.2% | 75.6 ± 6.8% | 73.5 ± 5.8% | 55.9 ± 4.1% | 40.4 ± 2.9% | 24.9 ± 2.8% | 4.54 ± 0.23% | 1.95 ± 0.19% | 109 ± 6.2% | 92 ± 6.8% | 94.2 ± 5.8% | 80.8 ± 4.9% | 84.8 ± 2.9% | 83.8 ± 2.8% | 74.3 ± 1.2% | 67.9 ± 0.8% | IC50 (MCF-7 cells; Table S2, read-out: IC50 (µM) on MCF-7 cell line): 143 ± 16.2 µM |
